In PMC9966435, “Synthesis and Biological Evaluation of 3-Amidoquinuclidine Quaternary Ammonium Compounds as New Soft Antibacterial Agents” (Pharmaceuticals, 2023):
Converted amounts (≈) assume the structure as drawn. Read-outs that look alike come from different tables or passages of the source.

Experiments:
Format in all cases: cell-based
[1] = tested on: Bacillus cereus ATCC14579; assay: Broth microdilution MIC in Mueller Hinton broth; details: Bacillus cereus
[2] = tested on: Pseudomonas aeruginosa ATTC27853; assay: Broth microdilution MIC in Mueller Hinton broth; details: Pseudomonas aeruginosa
[3] = tested on: Staphylococcus aureus ATCC33591; assay: Broth microdilution MIC in Mueller Hinton broth; details: Staphylococcus aureus
[4] = tested on: Enterococcus faecalis ATCC29212; assay: Broth microdilution MIC in Mueller Hinton broth; details: Enterococcus faecalis
[5] = tested on: Listeria monocytogenes ATCC7644; assay: Broth microdilution MIC in Mueller Hinton broth; details: Listeria monocytogenes
[6] = tested on: Escherichia coli ATTC25922; assay: Broth microdilution MIC in Mueller Hinton broth; details: Escherichia coli
[7] = tested on: Staphylococcus aureus Clinical/MRSA; assay: Broth microdilution MIC in Mueller Hinton broth; details: Staphylococcus aureus, MRSA, read-out: Minimum Inhibitory Concentration (MIC) Staphylococcus aureus Clinical/MRSA
[8] = tested on: Salmonella enterica food isolate; assay: microbe, parasite or virus in culture; details: Salmonella enterica, read-out: Minimum Inhibitory Concentration (MIC) Salmonella enterica food isolate
[9] = tested on: Staphylococcus aureus ATCC25923; assay: Broth microdilution MIC in Mueller Hinton broth
[10] = tested on: Staphylococcus aureus ATCC 25923; assay: MIC in cation-adjusted Mueller Hinton broth (CA-MHB); details: ATCC25923, cation-adjusted MHB, S. aureus ATCC 25923, read-out: MIC CA-MHB
Description: A representative bacterial strain, Staphylococcus aureus ATCC 25923, was grown overnight in Mueller Hinton broth (MHB). The following day, the culture was diluted in tempered MHB and allowed to grow at 37 °C with constant shaking of 220 rpm. Once the bacterial culture reached the exponential growth phase (OD600 = 0.3–0.5), it was diluted in the cation-adjusted Mueller Hinton broth (CA-MHB) containing MgCl2 (10 mM) to the final cell count of 5 × 10^5 CFU/mL. The previously prepared 96-well plate contained twofold serial dilutions of the compounds to be tested, dissolved in CA-MHB, in the concentrations range of 125 µM to 0.12 µM. Then, 50 µL of the bacterial cells diluted in CA-MHB was pipetted in each well of the plate and incubated overnight at 37 °C with constant shaking at 220 rpm. The next day, the minimum inhibitory concentration (MIC) was determined as the lowest concentration of the compound that prevented supposed bacterial growth in the wells. Visually determined results of antibacterial activity were confirmed by the addition of 20 µL 2-(4-iodophenyl)-3-(4-nitrophenyl)-5-phenyltetrazolium chloride (INT) reagent (6 mg/mL). The MIC value of a drug in CA-MHB containing NaCl (85 mM) was determined using the same experimental technique.

[11] = tested on: Staphylococcus aureus ATCC 25923; assay: MIC in Dulbecco's Modified Eagle Medium (DMEM); details: ATCC25923, Dulbecco's Modified Eagle Medium, S. aureus ATCC 25923, read-out: MIC DMEM
Description: The overnight culture of Staphylococcus aureus ATCC 25923 was diluted in fresh Mueller Hinton broth (MHB) and placed in an orbital shaker incubator (Gallenkamp, Cambridge, UK) at 37 °C and 220 rpm. Once the culture reached the exponential growth phase (OD600 = 0.3–0.5), cells were centrifuged (Heraeus, Biofuge primo R, Hanau, Germany) at room temperature at a speed of 4000× g. The cell pellet was resuspended in tempered Dulbecco’s Modified Eagle Medium (DMEM) to a final concentration of 5 × 10^5 CFU/mL. Then, 50 µL of as-prepared cells were added to a 96-well plate containing twofold serial dilutions of tested compounds in DMEM medium in the range of concentrations from 125 µM to 0.12 µM. The minimum inhibitory concentration (MIC) was visually assessed the next day. The MIC was determined as the lowest concentration of the substance at which no apparent bacterial growth was seen.

[12] = ATCC14579, read-out: Minimum Inhibitory Concentration (MIC) Bacillus cereus ATCC14579
[13] = ATTC27853, read-out: Minimum Inhibitory Concentration (MIC) Pseudomonas aeruginosa ATTC27853
[14] = ATCC33591, read-out: Minimum Inhibitory Concentration (MIC) Staphylococcus aureus ATCC33591
[15] = ATCC29212, read-out: Minimum Inhibitory Concentration (MIC) Enterococcus faecalis ATCC29212
[16] = ATCC7644, read-out: Minimum Inhibitory Concentration (MIC) Listeria monocytogenes ATCC7644
[17] = ATTC25922, read-out: Minimum Inhibitory Concentration (MIC) Escherichia coli ATTC25922
[18] = Staphylococcus aureus, ATCC25923, read-out: Minimum Inhibitory Concentration (MIC) Staphylococcus aureus ATCC25923
[19] = ATCC14579, MHB, read-out: Minimum Inhibitory Concentration (MIC) Bacillus cereus ATCC14579
[20] = ATTC27853, MHB, read-out: Minimum Inhibitory Concentration (MIC) Pseudomonas aeruginosa ATTC27853
[21] = ATCC33591, MHB, read-out: Minimum Inhibitory Concentration (MIC) Staphylococcus aureus ATCC33591
[22] = ATCC29212, MHB, read-out: Minimum Inhibitory Concentration (MIC) Enterococcus faecalis ATCC29212
[23] = ATCC7644, MHB, read-out: Minimum Inhibitory Concentration (MIC) Listeria monocytogenes ATCC7644
[24] = ATTC25922, MHB, read-out: Minimum Inhibitory Concentration (MIC) Escherichia coli ATTC25922
[25] = Staphylococcus aureus, ATCC25923, MHB, read-out: Minimum Inhibitory Concentration (MIC) Staphylococcus aureus ATCC25923
[26] = MHB, read-out: Minimum Inhibitory Concentration (MIC) Staphylococcus aureus ATCC25923

Structure (SMILES) | MIC [1, 12] | MIC [2, 13] | MIC [3, 14] | MIC [4, 15] | MIC [5, 16] | MIC [6, 17] | MIC [7] | MIC [8] | MIC [9, 18] | MIC [1, 19] | MIC [2, 20] | MIC [3, 21] | MIC [4, 22] | MIC [5, 23] | MIC [6, 24] | MIC [9, 25] | MIC [10] | MIC [11] | MIC [9, 26]
CC(=O)NC1CN2CCC1CC2 (racemic) [QAc, (±)3-acetamidoquinuclidine] | > 100 µM | > 100 µM | > 100 µM | > 100 µM | > 100 µM | > 100 µM | > 100 µM | > 100 µM | > 100 µM | – | – | – | – | – | – | – | – | – | –
O=C(NC1CN2CCC1CC2)c1ccccc1 (racemic) [QBn, (±)3-benzamidoquinuclidine] | – | – | – | – | – | – | > 100 µM | > 100 µM | – | > 100 µM | > 100 µM | > 100 µM | > 100 µM | > 100 µM | > 100 µM | > 100 µM | – | – | –
CCCCCCCCCCCC[N+]12CCC(CC1)C(NC(C)=O)C2 (stereo not drawn) [QAc-C12] | > 125 µM | > 125 µM | > 125 µM | > 125 µM | > 125 µM | > 125 µM | > 125 µM | > 125 µM | > 125 µM | – | – | – | – | – | – | – | – | – | –
CCCCCCCCCCCCCC[N+]12CCC(CC1)C(NC(C)=O)C2 (stereo not drawn) [QAc-C14] | > 125 µM | > 125 µM | > 125 µM | – | – | > 125 µM | > 125 µM | > 125 µM | > 125 µM | – | – | – | 63 µM | 63 µM | – | – | – | – | –
CCCCCCCCCCCCCCCC[N+]12CCC(CC1)C(NC(C)=O)C2 (stereo not drawn) [QAc-C16] | > 125 µM | > 125 µM | > 125 µM | – | – | > 125 µM | > 125 µM | > 125 µM | > 125 µM | – | – | – | 31 µM | 8 µM | – | – | – | – | –
CCCCCCCCCCCC[N+]12CCC(CC1)C(NC(=O)c1ccccc1)C2 (stereo not drawn) [QBn-C12] | – | – | – | – | – | – | 63 µM | 63 µM | – | 63 µM | > 125 µM | 63 µM | 31 µM | 31 µM | 63 µM | 63 µM | 25 µM | 3 µM | 63 µM
CCCCCCCCCCCCCC[N+]12CCC(CC1)C(NC(=O)c1ccccc1)C2 (stereo not drawn) [QBn-C14] | – | – | – | – | – | – | 31 µM | 31 µM | – | 63 µM | 63 µM | 31 µM | 8 µM | 4 µM | 31 µM | 31 µM | 25 µM | 3 µM | 31 µM
CCCCCCCCCCCCCCCC[N+]12CCC(CC1)C(NC(=O)c1ccccc1)C2 (stereo not drawn) [QBn-C16] | – | – | – | – | – | – | 31 µM | 63 µM | – | 63 µM | > 125 µM | 31 µM | 4 µM | 4 µM | 31 µM | 63 µM | 6 µM | 3 µM | 63 µM
C=CC[N+]12CCC(CC1)C(NC(=O)CCCCCCCCCCC)C2 (stereo not drawn) [QC12-Ally] | > 125 µM | > 125 µM | > 125 µM | > 125 µM | > 125 µM | > 125 µM | > 125 µM | > 125 µM | > 125 µM | – | – | – | – | – | – | – | – | – | –
CCCCCCCCCCCC(=O)NC1C[N+]2(C)CCC1CC2 (stereo not drawn) [QC12-Me] | – | > 125 µM | > 125 µM | – | – | – | 100 µM | > 125 µM | – | 100 µM | – | – | 100 µM | 100 µM | 100 µM | 100 µM | – | – | –
CCCCCCCCCCCC(=O)NC1CN2CCC1CC2 (stereo not drawn) [QC12] | – | – | – | – | – | – | > 100 µM | > 100 µM | – | > 100 µM | > 100 µM | 100 µM (≈ 30.9 µg/mL) | > 100 µM | 100 µM (≈ 30.9 µg/mL) | > 100 µM | > 100 µM | – | – | –
CCCCCCCCCCCCCC(=O)NC1CN2CCC1CC2 (stereo not drawn) [QC14] | – | – | – | – | – | – | 50 µM (≈ 16.8 µg/mL) | 100 µM (≈ 33.7 µg/mL) | – | 25 µM (≈ 8.41 µg/mL) | > 100 µM | 50 µM (≈ 16.8 µg/mL) | 17 µM (≈ 5.72 µg/mL) | 25 µM (≈ 8.41 µg/mL) | 50 µM (≈ 16.8 µg/mL) | 60 µM (≈ 20.2 µg/mL) | – | – | –
CCCCCCCCCCCCCCCC(=O)NC1CN2CCC1CC2 (stereo not drawn) [QC16] | – | – | – | – | – | – | 250 µM (≈ 91.2 µg/mL) | > 100 µM | – | > 100 µM | > 100 µM | 100 µM (≈ 36.5 µg/mL) | > 100 µM | 125 µM (≈ 45.6 µg/mL) | > 100 µM | 62.5 µM (≈ 22.8 µg/mL) | – | – | –
NC1CN2CCC1CC2 (stereo not drawn) [QNH2, 3-aminoquinuclidine] | > 100 µM | > 100 µM | > 100 µM | > 100 µM | > 100 µM | > 100 µM | > 100 µM | > 100 µM | > 100 µM | – | – | – | – | – | – | – | – | – | –
